# Tests used:
# 5-HT2A = 5-HT2A (Homo sapiens, UniProt P28223); assay: Receptor binding 5-HT2A; details: radioligand [3H]-ketanserin, read-out: Ki(nM) Compound 1
# Protocol: (§1) Receptor binding data were obtained by CEREP (128, rue Danton, 92500 Rueil-Malmaison, France) or at Solvay Pharmaceuticals B.V., using well documented standard procedures. Affinity for 5-HT1A receptors for instance, was determined by testing the ability of the compounds of the invention to displace [^3H]-2-(di-n-propylamino)-8-hydroxytetralin ([^3H]-8-OH-DPAT) from its specific binding sites in rat frontal cortex homogenates. This test is based on the method described by Gozlan et al. (Nature, 305, (1983), pages 140-142).
# (§2) The binding data collected in the table below were either obtained by CEREP (128, rue Danton, 92500 Rueil-Malmaison, France) or at Solvay Pharmaceuticals B.V., using well documented standard procedures.
# 5-HT1B = 5-HT1B (Rattus norvegicus, UniProt P28564); assay: Receptor binding 5-HT1B; details: radioligand [125I]-cyanopindolol, read-out: Ki(nM) Compound 1
# 5-HT1B, sequence (P28564 whole entry): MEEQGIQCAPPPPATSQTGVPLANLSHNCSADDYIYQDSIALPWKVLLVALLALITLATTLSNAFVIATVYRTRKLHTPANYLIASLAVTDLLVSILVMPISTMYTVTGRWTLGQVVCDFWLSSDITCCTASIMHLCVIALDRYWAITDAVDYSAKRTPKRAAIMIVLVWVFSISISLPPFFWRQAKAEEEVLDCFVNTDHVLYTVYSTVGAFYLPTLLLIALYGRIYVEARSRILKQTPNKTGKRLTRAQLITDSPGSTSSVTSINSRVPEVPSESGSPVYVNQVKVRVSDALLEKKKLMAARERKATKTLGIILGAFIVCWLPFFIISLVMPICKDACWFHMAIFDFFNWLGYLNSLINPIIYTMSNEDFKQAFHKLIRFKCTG
# Protocol: as §1, §2
# Interleukine-6 = Interleukine-6 (Homo sapiens, UniProt P08887); assay: Receptor binding Interleukine-6; details: radioligand [125I]-interleukine-6, read-out: Ki(nM) Compound 1
# Protocol: as §1, §2
# VIP1 = VIP1 (Homo sapiens, UniProt P32241); assay: Receptor binding VIP1; details: radioligand [125I]-VIP, read-out: Ki(nM) Compound 1
# VIP1, sequence (P32241 31-457): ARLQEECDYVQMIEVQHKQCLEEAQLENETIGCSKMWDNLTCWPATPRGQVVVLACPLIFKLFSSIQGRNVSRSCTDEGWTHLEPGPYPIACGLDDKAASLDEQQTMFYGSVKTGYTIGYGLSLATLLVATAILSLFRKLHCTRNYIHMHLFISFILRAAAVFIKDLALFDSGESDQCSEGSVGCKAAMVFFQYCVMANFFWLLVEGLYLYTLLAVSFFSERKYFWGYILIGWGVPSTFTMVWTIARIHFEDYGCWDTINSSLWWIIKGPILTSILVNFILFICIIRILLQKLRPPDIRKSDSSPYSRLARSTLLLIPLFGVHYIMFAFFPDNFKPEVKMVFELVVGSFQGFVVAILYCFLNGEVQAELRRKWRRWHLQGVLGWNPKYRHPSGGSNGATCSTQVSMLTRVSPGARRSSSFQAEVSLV
# Protocol: as §1, §2
# 5-HT6 = 5-HT6 (Homo sapiens, UniProt P50406); assay: Receptor binding 5-HT6; details: radioligand [3H]-LSD, read-out: Ki(nM) Compound 1
# Protocol: as §1, §2
# δ-opiate = δ-opiate (Rattus norvegicus, UniProt P33533); assay: Receptor binding δ-opiate; details: radioligand [3H]-DPDPE, read-out: Ki(nM) Compound 1
# Protocol: as §1, §2
# GABAB = GABAB (Rattus norvegicus, UniProt Q9Z0U4); assay: Receptor binding GABAB; details: read-out: Ki(nM) Compound 1
# GABAB, sequence (Q9Z0U4 17-960 limits assumed): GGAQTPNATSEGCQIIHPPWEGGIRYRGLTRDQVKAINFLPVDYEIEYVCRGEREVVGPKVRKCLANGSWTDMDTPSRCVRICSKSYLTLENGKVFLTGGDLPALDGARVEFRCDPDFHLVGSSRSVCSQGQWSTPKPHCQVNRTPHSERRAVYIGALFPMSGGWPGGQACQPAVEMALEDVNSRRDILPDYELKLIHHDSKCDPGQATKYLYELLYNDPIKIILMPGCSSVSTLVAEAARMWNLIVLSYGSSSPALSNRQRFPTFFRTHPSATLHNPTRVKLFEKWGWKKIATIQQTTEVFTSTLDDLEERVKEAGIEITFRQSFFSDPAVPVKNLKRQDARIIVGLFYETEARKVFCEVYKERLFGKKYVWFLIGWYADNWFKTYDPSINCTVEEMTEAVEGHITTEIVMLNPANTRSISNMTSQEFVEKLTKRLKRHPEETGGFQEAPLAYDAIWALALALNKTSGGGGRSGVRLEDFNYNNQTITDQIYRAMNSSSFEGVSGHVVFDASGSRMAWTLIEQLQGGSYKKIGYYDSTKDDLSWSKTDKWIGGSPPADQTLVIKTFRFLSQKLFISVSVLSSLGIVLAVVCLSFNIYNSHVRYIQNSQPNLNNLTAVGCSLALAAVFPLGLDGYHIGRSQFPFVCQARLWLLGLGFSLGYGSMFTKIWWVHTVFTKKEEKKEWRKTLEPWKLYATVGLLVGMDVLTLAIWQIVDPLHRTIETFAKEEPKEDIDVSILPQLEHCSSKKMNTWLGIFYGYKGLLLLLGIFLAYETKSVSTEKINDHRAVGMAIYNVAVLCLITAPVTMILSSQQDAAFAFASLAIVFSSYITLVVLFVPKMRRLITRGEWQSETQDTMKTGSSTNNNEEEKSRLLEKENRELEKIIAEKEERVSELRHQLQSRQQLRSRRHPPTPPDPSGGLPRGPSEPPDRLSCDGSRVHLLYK
# GABAB, sequence (O88871 41-940 partner): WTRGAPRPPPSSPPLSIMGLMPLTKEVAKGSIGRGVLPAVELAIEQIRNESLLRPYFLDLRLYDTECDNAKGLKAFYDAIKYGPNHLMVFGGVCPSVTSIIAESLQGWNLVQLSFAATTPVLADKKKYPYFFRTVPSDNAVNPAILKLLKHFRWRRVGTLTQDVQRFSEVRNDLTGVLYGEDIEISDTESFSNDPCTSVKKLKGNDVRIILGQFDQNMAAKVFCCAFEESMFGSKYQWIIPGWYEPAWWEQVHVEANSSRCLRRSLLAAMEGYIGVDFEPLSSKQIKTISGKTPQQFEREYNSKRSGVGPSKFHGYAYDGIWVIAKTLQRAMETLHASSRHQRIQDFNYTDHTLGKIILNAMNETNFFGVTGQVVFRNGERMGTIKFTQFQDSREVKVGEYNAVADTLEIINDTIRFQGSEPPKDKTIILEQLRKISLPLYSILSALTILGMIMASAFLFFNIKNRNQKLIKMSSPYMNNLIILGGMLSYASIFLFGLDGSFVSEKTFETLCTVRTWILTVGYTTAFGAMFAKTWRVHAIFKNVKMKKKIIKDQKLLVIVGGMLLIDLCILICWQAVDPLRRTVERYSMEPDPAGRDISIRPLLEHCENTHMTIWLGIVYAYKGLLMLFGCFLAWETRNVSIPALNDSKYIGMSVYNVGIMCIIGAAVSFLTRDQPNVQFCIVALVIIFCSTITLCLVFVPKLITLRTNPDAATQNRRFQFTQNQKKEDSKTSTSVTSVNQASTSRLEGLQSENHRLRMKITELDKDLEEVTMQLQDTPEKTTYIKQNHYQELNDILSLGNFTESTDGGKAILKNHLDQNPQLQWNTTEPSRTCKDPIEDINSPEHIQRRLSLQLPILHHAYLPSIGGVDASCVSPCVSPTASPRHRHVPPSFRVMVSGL
# Protocol: as §1, §2
# Adenosine-A3 = Adenosine-A3 (Homo sapiens, UniProt P0DMS8); assay: Receptor binding Adenosine-A3; details: radioligand [3H]-AB-MECA, read-out: Ki(nM) Compound 1
# Protocol: as §1, §2
# 5-HT3 = 5-HT3 (Homo sapiens, UniProt P46098); assay: Receptor binding 5-HT3; details: radioligand [3H]-BRL 43694, read-out: Ki(nM) Compound 1
# Protocol: as §1, §2
# sigma-SG1 = sigma-SG1 (Cavia porcellus, UniProt Q60492); assay: Receptor binding sigma-SG1; details: radioligand [3H]-pentazocone; guinea pig; read-out: Ki(nM) Compound 1
# Protocol: as §1, §2
# sigma-SG2 = sigma-SG2 (Rattus norvegicus, UniProt Q5U3Y7); assay: Receptor binding sigma-SG2; details: radioligand [3H]-DTG, read-out: Ki(nM) Compound 1
# Protocol: as §1, §2
# β2-adrenergic = β2-adrenergic (Homo sapiens, UniProt P07550); assay: Receptor binding β2-adrenergic; details: radioligand [3H]-CGP 12177, read-out: Ki(nM) Compound 1
# β2-adrenergic, sequence (P07550 whole entry): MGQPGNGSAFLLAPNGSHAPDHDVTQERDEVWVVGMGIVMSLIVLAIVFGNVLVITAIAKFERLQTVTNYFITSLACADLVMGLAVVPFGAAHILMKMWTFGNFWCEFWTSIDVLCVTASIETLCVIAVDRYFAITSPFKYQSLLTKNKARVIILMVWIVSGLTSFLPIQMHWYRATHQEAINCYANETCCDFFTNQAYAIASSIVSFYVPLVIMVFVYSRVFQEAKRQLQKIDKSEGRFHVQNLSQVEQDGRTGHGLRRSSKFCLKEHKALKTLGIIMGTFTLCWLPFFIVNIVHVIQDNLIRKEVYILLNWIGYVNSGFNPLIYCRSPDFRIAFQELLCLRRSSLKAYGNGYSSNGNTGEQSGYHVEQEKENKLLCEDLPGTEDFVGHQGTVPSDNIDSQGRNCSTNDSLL
# Protocol: as §1, §2
# Neurotensin-NT1 = Neurotensin-NT1 (Homo sapiens, UniProt P30989); assay: Receptor binding Neurotensin-NT1; details: radioligand [125I]-neurotensin, read-out: Ki(nM) Compound 1
# Protocol: as §1, §2
# Prostaglandin-I2 = Prostaglandin-I2 (Homo sapiens, UniProt P43119); assay: Receptor binding Prostaglandin-I2; details: radioligand [3H]-iloprost, read-out: Ki(nM) Compound 1
# Protocol: as §1, §2
# α1A-adrenergic = α1A-adrenergic (Rattus norvegicus, UniProt P43140); assay: Receptor binding α1A-adrenergic; details: radioligand [3H]-prazosin, read-out: Ki(nM) Compound 1
# Protocol: as §1, §2
# LTD4 = LTD4 (Cavia porcellus, UniProt Q2NNR5); assay: Receptor binding LTD4; details: radioligand [3H]-LTD4; guinea pig; read-out: Ki(nM) Compound 1
# Protocol: as §1, §2
# Ca++-channel = Ca++-channel (Rattus norvegicus, UniProt Q02294); assay: biochemical; format: binding
# Adenosine-A2A = Adenosine-A2A (Homo sapiens, UniProt P29274); assay: Receptor binding Adenosine-A2A; details: radioligand [3H]-CGS 21680, read-out: Ki(nM) Compound 1
# Protocol: as §1, §2
# β1-adrenergic = β1-adrenergic (Homo sapiens, UniProt P08588); assay: Receptor binding β1-adrenergic; details: radioligand [3H]-CGP 12177, read-out: Ki(nM) Compound 1
# β1-adrenergic, sequence (P08588 whole entry): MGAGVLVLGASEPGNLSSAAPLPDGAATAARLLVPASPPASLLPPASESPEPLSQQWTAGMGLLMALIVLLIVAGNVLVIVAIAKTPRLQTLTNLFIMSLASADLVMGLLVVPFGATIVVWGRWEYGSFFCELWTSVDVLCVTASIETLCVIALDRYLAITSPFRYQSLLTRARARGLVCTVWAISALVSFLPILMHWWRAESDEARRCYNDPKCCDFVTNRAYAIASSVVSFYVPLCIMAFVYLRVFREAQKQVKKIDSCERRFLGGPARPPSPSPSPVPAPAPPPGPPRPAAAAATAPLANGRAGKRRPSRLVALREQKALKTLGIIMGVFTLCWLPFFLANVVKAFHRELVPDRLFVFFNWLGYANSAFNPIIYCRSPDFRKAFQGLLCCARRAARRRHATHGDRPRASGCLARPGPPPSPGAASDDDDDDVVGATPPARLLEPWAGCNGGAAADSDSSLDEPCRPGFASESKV
# Protocol: as §1, §2
# Histamine-H1 = Histamine-H1 (Homo sapiens, UniProt P35367); assay: Receptor binding Histamine-H1; details: radioligand [3H]-pyrilamine, read-out: Ki(nM) Compound 1
# Protocol: as §1, §2
# Dopamine-D2 = Dopamine-D2 (Homo sapiens, UniProt P14416); assay: Receptor binding Dopamine-D2; details: radioligand [3H]-spiperone, read-out: Ki(nM) Compound 1
# Dopamine-D2, sequence (P14416 whole entry): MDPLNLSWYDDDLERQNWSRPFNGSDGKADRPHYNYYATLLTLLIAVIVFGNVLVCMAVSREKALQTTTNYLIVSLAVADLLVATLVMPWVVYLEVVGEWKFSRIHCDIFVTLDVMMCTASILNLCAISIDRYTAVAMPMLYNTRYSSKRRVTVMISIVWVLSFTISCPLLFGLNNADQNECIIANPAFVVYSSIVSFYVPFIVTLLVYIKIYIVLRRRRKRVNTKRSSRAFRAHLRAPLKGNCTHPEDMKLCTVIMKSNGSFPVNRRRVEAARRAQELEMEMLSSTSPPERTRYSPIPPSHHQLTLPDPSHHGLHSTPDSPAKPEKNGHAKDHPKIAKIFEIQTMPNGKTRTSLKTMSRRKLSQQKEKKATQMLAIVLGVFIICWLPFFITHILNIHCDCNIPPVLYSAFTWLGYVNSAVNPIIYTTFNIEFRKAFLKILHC
# Protocol: as §1, §2
# nicotine = nicotine (Rattus norvegicus, UniProt P09483+P12390); assay: Receptor binding nicotine; details: radioligand [3H]-cytisine, read-out: Ki(nM) Compound 1
# Protocol: as §1, §2
# CRF = CRF (Homo sapiens, UniProt P34998); assay: Receptor binding CRF; details: radioligand [125I]-oCRF, read-out: Ki(nM) Compound 1
# Protocol: as §1, §2
# Muscarine-M5 = Muscarine-M5 (Homo sapiens, UniProt P08912); assay: Receptor binding Muscarine-M5; details: radioligand [3H]-4-DAMP, read-out: Ki(nM) Compound 1
# Protocol: as §1, §2
# Dopamine-D3 = Dopamine-D3 (Homo sapiens, UniProt P35462); assay: Receptor binding Dopamine-D3; details: radioligand [3H]-spiperone, read-out: Ki(nM) Compound 1
# Protocol: as §1, §2
# Histamine-H3 = Histamine-H3 (Rattus norvegicus, UniProt Q9QYN8); assay: Receptor binding Histamine-H3; details: radioligand [3H]-α-methylhistamine, read-out: Ki(nM) Compound 1
# Histamine-H3, sequence (Q9QYN8 whole entry): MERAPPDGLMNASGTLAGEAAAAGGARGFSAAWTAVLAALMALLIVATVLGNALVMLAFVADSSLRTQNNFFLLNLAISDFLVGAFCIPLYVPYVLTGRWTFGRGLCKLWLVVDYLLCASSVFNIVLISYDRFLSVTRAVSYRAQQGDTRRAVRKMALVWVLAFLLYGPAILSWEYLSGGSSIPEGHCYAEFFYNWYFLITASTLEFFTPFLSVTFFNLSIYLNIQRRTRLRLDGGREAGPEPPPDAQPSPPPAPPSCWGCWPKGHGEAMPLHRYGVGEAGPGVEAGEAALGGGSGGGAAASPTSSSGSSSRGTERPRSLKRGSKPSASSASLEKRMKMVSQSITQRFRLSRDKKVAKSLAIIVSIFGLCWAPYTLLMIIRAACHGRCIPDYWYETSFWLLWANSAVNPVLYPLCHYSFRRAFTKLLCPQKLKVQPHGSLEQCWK
# Protocol: as §1, §2
# Neurokinin-NK3 = Neurokinin-NK3 (Homo sapiens, UniProt P29371); assay: Receptor binding Neurokinin-NK3; details: radioligand [3H]-SR 142801, read-out: Ki(nM) Compound 1
# Protocol: as §1, §2
# 5-HT2A, sequence (P28223 whole entry): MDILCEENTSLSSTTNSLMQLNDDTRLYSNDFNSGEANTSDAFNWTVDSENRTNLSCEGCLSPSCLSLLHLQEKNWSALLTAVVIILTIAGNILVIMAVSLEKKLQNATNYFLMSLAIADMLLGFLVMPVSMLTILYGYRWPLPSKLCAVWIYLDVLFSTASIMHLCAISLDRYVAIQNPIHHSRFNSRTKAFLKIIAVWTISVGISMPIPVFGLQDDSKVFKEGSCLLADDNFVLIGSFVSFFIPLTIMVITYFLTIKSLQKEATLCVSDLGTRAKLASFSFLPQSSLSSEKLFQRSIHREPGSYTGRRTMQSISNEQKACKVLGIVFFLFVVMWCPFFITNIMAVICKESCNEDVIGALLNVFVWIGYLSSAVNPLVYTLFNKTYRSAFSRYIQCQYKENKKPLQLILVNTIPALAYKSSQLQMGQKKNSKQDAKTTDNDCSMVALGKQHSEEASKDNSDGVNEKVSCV
smiles,measurement,setting,value
"Nc1cc2cccc(N3CCNCC3)c2oc1=O [Compound 1, 3-amino-8-(1-piperazinyl)-2H-1-benzopyran-2-one]",Ki,5-HT2A,630 nM
same,Ki,5-HT1B,2 nM
same,Ki,Interleukine-6,> 10000 nM
same,Ki,VIP1,> 1000 nM
same,Ki,5-HT6,> 1000 nM
same,Ki,δ-opiate,> 1000 nM
same,Ki,GABAB,> 1000 nM
same,Ki,Adenosine-A3,> 1000 nM
same,Ki,5-HT3,250 nM
same,Ki,sigma-SG1,> 1000 nM
same,Ki,sigma-SG2,> 1000 nM
same,Ki,β2-adrenergic,40 nM
same,Ki,Neurotensin-NT1,> 1000 nM
same,Ki,Prostaglandin-I2,> 1000 nM
same,Ki,α1A-adrenergic,630 nM
same,Ki,LTD4,> 10000 nM
same,Ki,Ca++-channel,> 1 µM
same,Ki,Adenosine-A2A,> 1000 nM
same,Ki,β1-adrenergic,50 nM
same,Ki,Histamine-H1,> 1000 nM
same,Ki,Dopamine-D2,> 1000 nM
same,Ki,nicotine,> 10000 nM
same,Ki,CRF,> 10000 nM
same,Ki,Muscarine-M5,> 1000 nM
same,Ki,Dopamine-D3,> 1000 nM
same,Ki,Histamine-H3,> 10000 nM
same,Ki,Neurokinin-NK3,> 1000 nM
